Data published in patent US9765017B2, “Allosteric hemoglobin modifiers with nitric oxide releasing moiety” (VIRGINIA COMMONWEALTH UNIVERSITY, priority 2013, dated 2017).

What was measured:
[1] = target: T1, Hb (Homo sapiens, UniProt P68871+P69905); test: Effect on Hb affinity for oxygen (oxygen equilibrium curve study) using normal whole blood; type: cell-based; conditions: 2 mM compound; for ΔP50: versus DMSO control, whole blood; for N (Hill coefficient) / P50: whole blood (Hct ~29%), 37° C.
T1 construct: Normal whole blood used in some of the functional assays was collected from adult donors; from tissue; host or cells: normal human whole blood (red cells) from adult donors
T1 sequence (P69905 2-142 limits assumed): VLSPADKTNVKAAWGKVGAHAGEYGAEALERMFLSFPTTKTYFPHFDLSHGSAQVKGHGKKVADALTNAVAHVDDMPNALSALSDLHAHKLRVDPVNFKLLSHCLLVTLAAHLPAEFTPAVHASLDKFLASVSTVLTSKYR
T1 sequence (P68871 2-147 limits assumed): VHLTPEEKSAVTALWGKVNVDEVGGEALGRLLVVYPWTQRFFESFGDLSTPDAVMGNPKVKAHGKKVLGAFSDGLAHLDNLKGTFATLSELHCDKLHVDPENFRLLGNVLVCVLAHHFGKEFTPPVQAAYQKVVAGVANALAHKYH
Description: RSR-13 is an allosteric effector of Hb that acts by decreasing Hb affinity for O2, and as a result allows release of more O2 to tissues.^26 In this study, a nitrate ester moiety was incorporated onto RSR-13. It was proposed that, in vivo, the NO will cleave off, resulting in the parent compound and free NO, the former acting as right-shifter of the oxygen equilibrium curve while the latter is released into the vasculature. The following describe the synthesis of three nitrate esters of RSR-13, including DD-1, DD-2 and DD-3 (FIGS. 1-3). Other NO containing RSR-13 derivatives, such as those referenced above may be synthesized according to the same or similar processes. Normal whole blood used in some of the functional assays was collected from adult donors at the Virginia Commonwealth University after informed consent. Hb used for structural studies was purified from discarded normal blood samples. The use of these human samples is in accordance with regulations of the IRB for Protection of Human Subjects.
The effect of DD-1 on Hb affinity for oxygen was studied using whole blood with RSR-13 as a positive control. Solution of DD-1 and RSR-13 was added to 2 mL of whole blood (Hemocrit of ˜29%) to make a final drug concentration of 2 mM. Time-dependent studies were carried out at various time points (ranging from 1 h to 12 h) at 37° C. Briefly, blood-drug mixture samples at various time points were incubated in IL 237 tonometer (Instrumentation Laboratories, Inc., Lexington, Mass.) for about 5-7 min at 37° C. against gas mixture containing O2 concentrations of 0.804%, 2.935% and 8.785% and allowed to equilibrate at O2 tensions of 6, 20, 60 mmHg, respectively. After equilibration, the sample was removed via syringe and aspirated into a ABL 700 series table top automated blood gas analyzer (Radiometer America, Inc., Westlake, Ohio) to determine total hemoglobin (tHb), hematocrit (Hct), pH, pCO2, partial pressure of oxygen (pO2), and the Hb oxygen saturation values (sO2). The measured values of pO2 and sO2 at each oxygen saturation level were then subjected to a non-linear regression analysis using the program Scientist (Micromath, Salt Lake City, Utah) with the following equation:
[formula] This equation was used to calculate P50 and Hill coefficient (N) values. Corresponding control experiments without the test compound (P50control) but containing DMSO were also performed.

[2] = Stability of DMSO stock solution checked by UPLC-MS; type: physicochemical; conditions: 100 μM in DMSO, 3 months at −20° C., at least 6 freeze-thaw cycles
Protocol: The stability of nitrate esters was checked by performing UPLC-MS on a previously prepared stock solution of DD-1. A 100 μM stock solution was prepared in DMSO and stored for 3 months at −20° C. during which time it was exposed to at least 6 freeze-thaw cycles.

[3] = Griess assay of nitric oxide release (quantitated as NO2- release); type: physicochemical; conditions: 2 mM solution in 0.1 M phosphate buffer pH 7.4 mixed with 36 mM L-cysteine, 37° C., anaerobic
Protocol: A Griess assay was used to measure the NO releasing ability of DD-1 following literature procedures.^29-31 Solution of the test compound (1 mL of a 2 mM solution in 0.1 M phosphate buffer (pH 7.4)) was mixed thoroughly with a freshly prepared solution of L-cysteine (1 mL of a 36 mM solution in 0.1 M phosphate buffer, pH 7.4), and incubated at 37° C. for 1 and 16 h under anaerobic conditions. After exposure to air for 10 min at 25° C., an aliquot of the Griess reagent (1 mL) [freshly prepared by mixing equal volumes of 1.0% sulfanilamide (prepared and stored in aqueous 5% phosphoric acid) and 0.1% N-naphthylethylenediamine dihydrochloride in water] was added to equal volume (1 mL) of each incubation solution after mixing. After 10 min, absorbance was measured at 540 nm using a Hewlett Packard (Agilent) 8453 UV-visible Spectroscopy. NaNO2 solutions of 1-100 μM concentrations were used to prepare a standard nitrite curve of absorbance (nm) versus concentration (μM), and the NO released by DD-1 (quantitated as NO2^−release in μM) was calculated from the standard nitrite curve by extrapolation of the absorbance.

Row | SMILES | ΔP50 ([1]; incubation time 1 h) [mmHg] | ΔP50 ([1]; incubation time 2 h) [mmHg] | ΔP50 ([1]; incubation time 4 h) [mmHg] | ΔP50 ([1]; incubation time 8 h) [mmHg] | ΔP50 ([1]; incubation time 12 h) [mmHg] | N (Hill coefficient) ([1]; incubation time 1 h) | P50 ([1]; incubation time 1 h) [mmHg] | N (Hill coefficient) ([1]; incubation time 2 h) | P50 ([1]; incubation time 2 h) [mmHg] | N (Hill coefficient) ([1]; incubation time 4 h) | P50 ([1]; incubation time 4 h) [mmHg] | N (Hill coefficient) ([1]; incubation time 8 h) | P50 ([1]; incubation time 8 h) [mmHg] | N (Hill coefficient) ([1]; incubation time 12 h) | P50 ([1]; incubation time 12 h) [mmHg] | Stability of stock solution [2] | NO2- release after 1 hour ([3]; 1 h incubation) [µM] | NO2- release after 16 hours ([3]; 16 h incubation) [µM]
1 | Cc1cc(C)cc(NC(=O)Cc2ccc(OC(C)(C)C(=O)OCCO[N+](=O)[O-])cc2)c1 [DD-1, 2-(Nitrooxy)ethyl 2-(4-(2-((3,5-dimethylphenyl)amino)-2-oxoethyl)phenoxy)-2-methylpropanoate] | 3.2 | 6.3 | 16.3 | 25.4 | 27.8 | 2.3 | 35.7 | 2.1 | 39.2 | 1.9 | 49.9 | 1.7 | 60.3 | 1.7 | 64.8 | stable | 9.61 | 5.35
2 | Cc1cc(C)cc(NC(=O)Cc2ccc(OC(C)(C)C(=O)O)cc2)c1 [RSR-13, 2-[4-[2-[(3,5-dimethylphenyl)amino]-2-oxoethyl]phenoxy]-2-methylpropanoic acid, reference compound] | 15.3 | 15.0 | 16.1 | 16.9 | 15.6 | 1.8 | 47.8 | 1.9 | 47.9 | 1.8 | 49.7 | 1.8 | 51.8 | 1.9 | 52.6 | – | – | –
